Some targets named below: Cytochrome P450 3A4 (Homo sapiens, UniProt P08684); Cytochrome P450 2D6 (Homo sapiens, UniProt P10635); Cytochrome P450 2C9 (Homo sapiens, UniProt P11712).
Series [1] deals with T1, Heat shock factor protein 1 (Mus musculus, UniProt P38532).
T1 sequence (P38532 whole entry): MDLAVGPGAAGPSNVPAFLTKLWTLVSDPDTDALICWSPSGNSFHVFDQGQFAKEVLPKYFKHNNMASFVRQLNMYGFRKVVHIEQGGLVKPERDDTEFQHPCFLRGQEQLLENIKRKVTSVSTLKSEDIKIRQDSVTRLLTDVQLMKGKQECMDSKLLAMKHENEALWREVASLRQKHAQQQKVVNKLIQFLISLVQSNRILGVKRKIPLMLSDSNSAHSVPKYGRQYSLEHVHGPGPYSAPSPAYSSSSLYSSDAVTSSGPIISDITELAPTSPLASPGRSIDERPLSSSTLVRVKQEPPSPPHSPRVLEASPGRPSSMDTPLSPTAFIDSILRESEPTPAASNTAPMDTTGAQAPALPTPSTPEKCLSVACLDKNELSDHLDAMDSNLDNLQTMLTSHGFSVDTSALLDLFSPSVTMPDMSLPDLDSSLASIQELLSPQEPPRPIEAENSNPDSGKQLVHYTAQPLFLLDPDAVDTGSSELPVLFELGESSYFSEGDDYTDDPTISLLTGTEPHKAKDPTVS
Briefly: inhibition of MG132-induced HSE-luciferase signal, confirmation, cell-based, NIH3T3, luminescence, dose retest (AID 2382).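 Note: NIH3T3 fibroblasts with HSF1-driven luciferase reporter stressed by proteasome inhibitor MG132; luminescence from HSF1-driven luciferase expression after 8 hours of MG132 stress.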 It is filed as functional.

Series [2] can be described thus: inhibitors of firefly luciferase expression or activity, dose response, H4 neuroglioma cells, luminescence (AID 1990). It is filed as functional, cell-based.
Series [3] is described as follows: Luminescence Cell-Based Dose Response HTS to Identify Inhibitors of 5'UTR Stem-Loop Driven Prion Protein mRNA Translation in H4 Neuroglioblastoma Cells. [Related pubchem assays: 1827 (Project Summary), 1813 (Primary HTS)]. The class given is functional.
Series [4] in a line: inhibitors of SNCA 5'UTR-driven reporter translation, confirmation, H4 neuroglioma cells, luminescence (AID 1988). The class given is functional, cell-based.
The next series has as its target T2, Cytochrome P450 1A2 (Homo sapiens, UniProt P05177).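 Note: PubChem cytochrome P450 panel assay, CYP1A2 panel member.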
T2 sequence (P05177 whole entry): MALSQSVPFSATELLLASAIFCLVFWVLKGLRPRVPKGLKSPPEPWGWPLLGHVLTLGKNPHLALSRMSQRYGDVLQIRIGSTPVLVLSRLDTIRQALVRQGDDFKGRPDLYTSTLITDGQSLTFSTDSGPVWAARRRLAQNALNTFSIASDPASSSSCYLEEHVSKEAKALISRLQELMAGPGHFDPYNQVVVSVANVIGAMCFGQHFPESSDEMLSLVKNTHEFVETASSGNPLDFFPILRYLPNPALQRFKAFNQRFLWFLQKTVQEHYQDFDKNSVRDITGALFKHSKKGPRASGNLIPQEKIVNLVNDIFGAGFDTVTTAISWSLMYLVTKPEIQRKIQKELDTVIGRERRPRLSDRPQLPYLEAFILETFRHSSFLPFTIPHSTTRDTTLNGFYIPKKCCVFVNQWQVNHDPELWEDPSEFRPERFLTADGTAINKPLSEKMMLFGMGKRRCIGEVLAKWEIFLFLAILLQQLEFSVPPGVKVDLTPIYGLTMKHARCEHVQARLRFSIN

A further series addresses Cytochrome P450 2C19 (Homo sapiens, UniProt P33261). Description: Cytochrome panel assay with activity outcomes. Panel member name: p450-cyp2c19 Compounds with AC50 equal or less than 10 uM are considered active. It is filed as functional.

Molecules are shown by their SMILES. Activity calls are given as the source filed them.

As a reminder, the AC50 is the concentration giving half of the maximal activity seen. What is called EC50 is the concentration needed to bring the measured effect to its halfway point.

Cytochrome P450 2D6, sequence (P10635 whole entry): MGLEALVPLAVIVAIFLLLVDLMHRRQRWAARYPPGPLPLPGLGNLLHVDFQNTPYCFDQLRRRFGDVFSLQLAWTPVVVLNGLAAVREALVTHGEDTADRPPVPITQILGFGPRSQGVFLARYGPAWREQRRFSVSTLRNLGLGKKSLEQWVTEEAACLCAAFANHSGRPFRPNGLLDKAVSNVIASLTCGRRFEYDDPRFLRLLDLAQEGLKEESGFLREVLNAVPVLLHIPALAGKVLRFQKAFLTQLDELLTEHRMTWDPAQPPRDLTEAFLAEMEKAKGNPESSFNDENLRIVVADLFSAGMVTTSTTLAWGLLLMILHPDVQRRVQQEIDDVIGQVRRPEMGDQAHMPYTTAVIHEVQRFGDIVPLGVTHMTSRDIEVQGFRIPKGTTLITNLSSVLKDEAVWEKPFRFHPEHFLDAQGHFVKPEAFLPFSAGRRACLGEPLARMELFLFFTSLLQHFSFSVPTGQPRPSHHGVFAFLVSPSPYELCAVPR
Cytochrome P450 2C9, sequence (P11712 whole entry): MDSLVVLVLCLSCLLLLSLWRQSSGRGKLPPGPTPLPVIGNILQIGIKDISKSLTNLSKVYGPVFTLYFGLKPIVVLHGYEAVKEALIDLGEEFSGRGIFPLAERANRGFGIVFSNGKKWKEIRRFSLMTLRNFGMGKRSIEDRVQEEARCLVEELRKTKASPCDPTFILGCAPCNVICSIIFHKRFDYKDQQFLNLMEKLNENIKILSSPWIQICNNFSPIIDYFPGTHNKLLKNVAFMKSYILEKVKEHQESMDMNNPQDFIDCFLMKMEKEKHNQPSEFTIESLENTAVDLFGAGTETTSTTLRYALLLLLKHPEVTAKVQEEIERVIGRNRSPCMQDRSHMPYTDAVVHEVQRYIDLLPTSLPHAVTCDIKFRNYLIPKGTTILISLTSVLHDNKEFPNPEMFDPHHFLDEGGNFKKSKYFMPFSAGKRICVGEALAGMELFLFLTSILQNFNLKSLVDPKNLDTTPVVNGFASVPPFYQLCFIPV
Cytochrome P450 2C19, sequence (P33261 whole entry): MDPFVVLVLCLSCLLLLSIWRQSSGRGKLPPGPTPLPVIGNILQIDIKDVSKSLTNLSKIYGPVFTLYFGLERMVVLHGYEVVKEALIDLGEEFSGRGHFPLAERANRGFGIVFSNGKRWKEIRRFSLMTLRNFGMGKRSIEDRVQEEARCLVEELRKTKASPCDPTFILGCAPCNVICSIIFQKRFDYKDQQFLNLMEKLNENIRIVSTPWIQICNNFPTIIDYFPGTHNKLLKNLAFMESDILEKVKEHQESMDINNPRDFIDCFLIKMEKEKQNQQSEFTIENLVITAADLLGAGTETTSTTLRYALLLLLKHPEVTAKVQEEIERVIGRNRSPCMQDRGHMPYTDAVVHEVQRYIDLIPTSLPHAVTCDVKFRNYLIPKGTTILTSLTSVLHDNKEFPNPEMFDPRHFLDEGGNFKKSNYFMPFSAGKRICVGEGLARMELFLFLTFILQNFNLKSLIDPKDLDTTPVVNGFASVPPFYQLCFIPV
Cytochrome P450 3A4, sequence (P08684 whole entry): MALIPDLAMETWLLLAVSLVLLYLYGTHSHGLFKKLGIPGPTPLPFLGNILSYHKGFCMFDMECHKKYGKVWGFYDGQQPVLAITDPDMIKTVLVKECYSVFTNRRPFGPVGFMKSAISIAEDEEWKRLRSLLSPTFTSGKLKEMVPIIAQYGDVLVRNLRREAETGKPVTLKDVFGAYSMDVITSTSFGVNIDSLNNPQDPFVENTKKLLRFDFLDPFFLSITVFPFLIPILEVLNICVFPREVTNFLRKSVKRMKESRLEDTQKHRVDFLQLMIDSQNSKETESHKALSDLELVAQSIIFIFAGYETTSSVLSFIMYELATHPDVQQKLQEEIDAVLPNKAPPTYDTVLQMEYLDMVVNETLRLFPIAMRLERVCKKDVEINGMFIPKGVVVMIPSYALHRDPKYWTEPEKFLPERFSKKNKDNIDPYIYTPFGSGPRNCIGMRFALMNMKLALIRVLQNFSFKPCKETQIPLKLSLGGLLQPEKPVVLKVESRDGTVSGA

Consider `C[C@H](CN(C)C)C(C#N)(c1ccccc1)c1ccccc1`, for which the AC50 at Cytochrome P450 3A4 is 3.98 µM (inconclusive); on Cytochrome P450 2D6 it was 3.16 µM (inconclusive).

Regarding `CCOC(=O)c1ccc(NC(=O)NS(=O)(=O)c2ccc(C)cc2)cc1`, the EC50 in series [1] was > 195 µM (not active).

On to `Nc1nc(O)c(Br)c(Oc2ccc(F)cc2)n1`, for which the half-maximal effective concentration (EC50) in series [1] is 35.4 µM (active).

For `Nc1nc(OCc2ccccc2)c2[nH]cnc2n1` [6-O-BENZYLGUANINE], the AC50 at Cytochrome P450 2D6 was 0.501 µM (inconclusive); at Cytochrome P450 2C9 it was 39.8 µM (inconclusive).

Turning to `O=C(N/N=C/c1cc([N+](=O)[O-])ccc1Cl)c1cnccn1`, the EC50 in series [2] is > 120 µM (not active); in [3] it was 9.8 µM (active); in [4] it was > 120 µM (not active).

With `COc1cccc(COC(=O)c2ccc3c(c2)NC(=O)C(C)S3)c1OC` (stereo unspecified), the EC50 in series [1] was > 195 µM (not active).

As to `Cc1ccc(NC(=O)NCC(c2cccnc2)N2CCOCC2)cc1` (stereo unspecified), the concentration giving a half-maximal response (EC50) in series [1] was > 195 µM (not active).

For the compound `CC(C)[C@H](CO)Nc1nc(Nc2cccc(Cl)c2)c2ncn(C(C)C)c2n1` [PURVALANOLA], the AC50 at Cytochrome P450 2C9 is 39.8 µM (inconclusive).

With `N#Cc1nc(-c2ccco2)oc1N1CCN(Cc2ccccc2)CC1`, the EC50 in series [1] was > 195 µM (not active).

Turning to `COC(=O)[C@@]1(Cc2ccc(F)cc2)[C@H]2c3cc(C(=O)N4CCCC4)n(Cc4c(CO)ncc(C)c4O)c3C[C@H]2CN1C(=O)c1ccccc1`, the half-maximal activity concentration (AC50) on Cytochrome P450 1A2 was 20 µM (inconclusive); on Cytochrome P450 2C19 (read-out: AC50) it was 39.8 µM (inconclusive).

For `O=C(c1nc2nc(-c3ccc(Cl)cc3)cc(C(F)(F)F)n2n1)N1CCOCC1`, the EC50 in [2] is 14 µM (active); in [3] it was 54.3 µM (active); in series [4] it was 15.9 µM (active).

As to `O=S(=O)(c1ccc2c(c1)OCCO2)N1CCC(c2nc(O)c3nnn(Cc4ccccc4F)c3n2)CC1`, the concentration for a half-maximal effect (EC50) in [2], in series [3] and in series [4] was > 120 µM (not active) in each case.

Take `CCn1c(C(=O)NC(C)c2ccc3c(c2)OCCO3)cc2sccc21` (stereo unspecified): the concentration giving a half-maximal response (EC50) in series [2] is 14.2 µM (active); in series [3], 15.8 µM (active); in [4] it was 22.5 µM (active).

Consider `COc1cccc(-c2cc(C(F)(F)F)nc(-n3cc(Cl)cn3)n2)c1`, for which the concentration for a half-maximal effect (EC50) in series [2], in [3] and in [4] was > 120 µM (not active) each time.

For `CN(C)c1ncc2nc(-c3cccc(C#N)c3)c(=O)n(C[C@H]3CCCO3)c2n1`, the half-maximal activity concentration (AC50) is 2.51 µM (inconclusive) on Cytochrome P450 2D6 and 3.16 µM (inconclusive) at Cytochrome P450 1A2.

On to `O=C(c1ccc(F)cc1)N1CCCC(N2CCN(Cc3ccc4c(c3)OCO4)CC2)C1` (stereo unspecified), for which the concentration for a half-maximal effect (EC50) in series [1] is > 195 µM (not active).

As to `COC(=O)c1ccc(/C=N\NC(=O)c2ccc(C)cc2Cl)cc1`, the AC50 at Cytochrome P450 1A2 was 10 µM (inconclusive).

Consider `CN(C)c1ncc2nc(-c3cccs3)c(=O)n(CCc3ccccc3)c2n1`, for which the half-maximal activity concentration (AC50) at Cytochrome P450 1A2 is 5.01 µM (inconclusive).

`O=c1c(-c2cccc(Cl)c2)nc2cncnc2n1Cc1ccccc1Cl`: the results for the AC50 at Cytochrome P450 3A4 and at Cytochrome P450 2D6 were 12.6 µM (inconclusive) and 15.8 µM (inconclusive), respectively.

In the case of `Cc1noc(C)c1C(=O)N1CCC2(CC1)CCN(c1ccncc1)CC2`, the AC50 at Cytochrome P450 3A4 is 3.98 µM (inconclusive); at Cytochrome P450 2D6, 12.6 µM (inconclusive).

`COc1ccc(NC(=O)C2CCN(C(=O)Nc3ccc(C)cc3)CC2)cc1OC`: the EC50 in series [2], in series [3] and in [4] was > 120 µM (not active) each time.

For the compound `CO[C@H]1[C@H](O[C@H]2O[C@@H](C)[C@@H](O[C@@H]3C[C@](C)(O)[C@H](OC(=O)CC(C)C)[C@H](C)O3)[C@@H](N(C)C)[C@@H]2O)[C@@H](CC=O)C[C@@H](C)[C@@H](O)/C=C\C=C/C[C@@H](C)OC(=O)C[C@H]1OC(C)=O`, the AC50 at Cytochrome P450 3A4 is 12.6 µM (inconclusive).

Consider `COC(=O)c1cccc(NC(=O)CCCOc2ccccc2)c1`, for which the half-maximal activity concentration (AC50) on Cytochrome P450 3A4 is 12.6 µM (inconclusive).

For `Fc1ccc(C2CC(c3ccco3)=NN2c2ccccc2)cc1` (stereo unspecified), the AC50 on Cytochrome P450 3A4 is 0.0251 µM (inconclusive).

For `CC(C)Cc1nc2n[nH]c(N)c2c2c1COC(C)(C)C2`, the 50% effective concentration (EC50) in series [2] is 38.2 µM (active); in series [3], > 120 µM (not active); in series [4], 21.4 µM (active).

As to `NS(=O)(=O)c1ccc(CCNC(=O)C2CCCN2C(=O)OCc2ccccc2)cc1` (stereo unspecified), the AC50 on Cytochrome P450 2C9 was 15.8 µM (inconclusive); at Cytochrome P450 2C19, “inconclusive”.

With `O=C(N/N=C/c1cccnc1)c1ccc2c(c1)OCCO2`, in series [1], the EC50 is > 195 µM (not active).

As for `COc1ccc(NC(=O)CSc2nc(C)cs2)cc1`, the EC50 in series [1] was > 195 µM (not active).

Turning to `O=C1OC(N2CCN(C/C=C/c3ccccc3)CC2)c2ccccc21` (stereo unspecified), in series [1], the EC50 is > 195 µM (not active).

On to `COCC(=O)N1CCC2(CCCN(c3ccccc3)C2)CC1`, for which the AC50 on Cytochrome P450 3A4 is 7.94 µM (inconclusive).

For `Cc1ccc(NC(=O)CCC(=O)NNC(=O)c2ccco2)cc1C`, the figures for the AC50 on Cytochrome P450 2C9 and on Cytochrome P450 2C19 (read-out: AC50) were 12.6 µM (inconclusive) and 17.8 µM (inconclusive), respectively.

With `COc1ccc(-n2nc(C(=O)NCC(=O)Nc3ccccn3)c3ccccc3c2=O)cc1`, the half-maximal activity concentration (AC50) on Cytochrome P450 2C9 is 1.41 µM (inconclusive); on Cytochrome P450 2C19 (read-out: AC50), 3.16 µM (inconclusive).

Turning to `Cc1ccc2c(COC(=O)C3=COCCO3)cc(=O)oc2c1`, the results for the concentration giving a half-maximal response (EC50) in [3] and in series [4] were 10.5 µM (active) and 8.1 µM (inconclusive), respectively.

Consider `Cn1c(SCC(=O)NCc2ccccc2)nc2ccccc21`, for which, in series [1], the EC50 is reported as > 195 µM (not active).

Regarding `CNCC/C=C\c1cccnc1`, the figures for the AC50 at Cytochrome P450 2D6, on Cytochrome P450 2C9 and at Cytochrome P450 2C19 (read-out: AC50) were 15.8 µM (inconclusive), 39.8 µM (inconclusive) and 20 µM (inconclusive), respectively.

`C1=C(c2cccc3ccccc23)N2CCN=C2S1`: the half-maximal effective concentration (EC50) in series [2], in series [3] and in series [4] was > 120 µM (not active) each time.

On to `CC1(C)N(O)C(c2ccc(C(=O)O)cc2)=[N+]([O-])C1(C)C`, for which the half-maximal activity concentration (AC50) on Cytochrome P450 1A2 was 31.6 µM (inconclusive).

Turning to `Fc1ccccc1CCNCc1cccc(Cl)c1Cl`, the half-maximal activity concentration (AC50) on Cytochrome P450 2C9 is 39.8 µM (inconclusive).

Regarding `O=c1c(-c2ccccc2)nc2cnc(N3CCOCC3)nc2n1C[C@H]1CCCO1`, the AC50 at Cytochrome P450 3A4 was 39.8 µM (inconclusive).

On to `CC(C)(C)OC(=O)COc1cc(O)c2c(=O)cc(-c3ccccc3)oc2c1`, for which the 50% effective concentration (EC50) in series [1] is > 195 µM (not active).

Turning to `O=c1[nH][nH]c(=S)c(=O)[nH]1`, the half-maximal activity concentration (AC50) at Cytochrome P450 2C9 was 2.51 µM (inconclusive); on Cytochrome P450 2C19 (read-out: AC50) it was 2 µM (inconclusive).

For the compound `CCC(=O)Nc1ccc(NC(=O)Cc2ccccc2)cn1`, the EC50 in series [1] was > 195 µM (not active).

In the case of `COc1ccc(-c2nc(CNS(=O)(=O)c3ccc(OC)c(OC)c3)cs2)cc1`, in series [1], the concentration for a half-maximal effect (EC50) was > 195 µM (not active).

For `C[C@]1(c2ccccc2)OC(C(=O)O)=CC1=O`, the AC50 on Cytochrome P450 1A2 is 39.8 µM (inconclusive).

Take `O=C(OCC(=O)N1CCN(C(=O)c2ccco2)CC1)c1sc2cc(F)ccc2c1Cl`: the EC50 in series [1] is > 195 µM (not active).

Turning to `FC(F)(F)c1cc(Sc2ccccc2)nc(-c2ccccn2)n1`, the AC50 on Cytochrome P450 2D6 is 11.2 µM (inconclusive); on Cytochrome P450 2C9, 14.1 µM (inconclusive).

Turning to `Oc1ccc2ccccc2c1CN(Cc1c(O)ccc2ccccc12)C1CCCCC1`, the half-maximal activity concentration (AC50) on Cytochrome P450 2C9 was 7.94 µM (inconclusive).

With `CC(=O)Nc1nonc1NC(=O)c1ccc(C(C)(C)C)cc1`, the AC50 on Cytochrome P450 2C9 and at Cytochrome P450 2C19 (read-out: AC50) was 3.55 µM (inconclusive) in each case.

Consider `COc1ccc(-c2[nH]ncc2CN2CCC(O)(c3ccc(Cl)cc3)CC2)cc1`, for which the EC50 was 18.2 µM (active) in [2] and 9.96 µM (active) in series [4].

Values taken from ChEMBL document CHEMBL1201862, “PubChem BioAssay data set” (2004).
